Source: patent publication US20060281766A1 (priority 2003, published 2006)
Where two headings read alike, the source gives them in different places.

Test system: Phytophthora infestans
Format: in vivo
Details: individual active compound, tomato leaves, infected next day, assessed after 6 days

SMILES	Efficacy in % of the untreated control (0.25 ppm in the spray liquor) [%]	Efficacy in % of the untreated control (16 ppm in the spray liquor) [%]	Efficacy in % of the untreated control (1 ppm in the spray liquor) [%]
CC1CCN(c2c(-c3c(F)cccc3Cl)c(Cl)nc3ncnn23)CC1 [A]	0	0	
C[C@H](Nc1c(-c2c(F)cc(F)cc2F)c(Cl)nc2ncnn12)C(F)(F)F [B]	0	0	
CNC(=O)/C(=N/OC)c1ccccc1COc1cc(C)ccc1C [I, dimoxystrobin]	0		56
CC1CCN(c2c(-c3c(F)cc(F)cc3F)c(Cl)nc3ncnn23)CC1 [II, 5-chloro-7-(4-methylpiperidin-1-yl)-6-(2,4,6-trifluorophenyl)-[1,2,4]tri-azolo[1,5-a]pyrimidine]	0	0	
